The target of this assay is HSP90α (Homo sapiens, UniProt P07900). The experiment in a line: competitive fluorescence polarization with geldanamycin-FITC. It is filed as binding. On the technique in general: Fluorescence polarisation rises when a labelled molecule tumbles more slowly, as on binding a larger partner.

For the molecule `O=C1C=C(Nc2ccc3cnccc3c2)c2ccccc2C1=O` [YZ129, 4-(isoquinolin-6-ylamino)naphthalene-1,2-dione], the IC50 worked out at 0.0295 µM.

The IC50 is the concentration needed to halve the response being measured. A higher IC50 goes with a need for much substance.
